Data as given in patent publication US20070259903A1 (priority 2006, published 2007).
In brackets after ≈: the same amount, converted by molar mass. Where two headings read alike, the source gives them in different places.

Key:
[1] = test system: Influenza A/New Caledonia/20/99 (H1N1); assay: ETOH vs DMSO comparison: compound + virus 1 h at room temperature, then left on indicator cells 3 days, neutral red; type: cell-based, influenza A virus; conditions: exposed to c1 + virus for 3 days
Flu A (H3N2) = assay: Virucidal activity: virus pre-incubated with compound, applied to MDCK cells 1 h, removed, CPE after 6 days; type: cell-based, influenza A virus
Flu A (H5N1) = type: cell-based, influenza A virus; conditions: virus treated one hour
[2] = test system: Influenza A/California/7/04 (H3N2); assay: ETOH vs DMSO comparison: compound + virus 1 h at room temperature, on indicator cells 1 hour then removed, neutral red; type: cell-based, influenza A virus; conditions: exposed to c1 + virus for 1 hour
Measles Chicago = type: cell-based; conditions: CV-1 cells, continuous exposure
Experimental: (§1) The antiviral activity of barbituric acid analogs was also evaluated under conditions where the indicator cells to which virus had been previously added and then continuously exposed to different concentrations of C1 for the duration of the experiments. Eight different doses of C1 ranging from 100 μg/ml to half-log dilutions down to 0.032 μg/ml were added to the indicator cells after adding the indicated virus. This virus-cell combination was continuously exposed to C1 until untreated control wells developed a cytopathic effect (CPE) usually after 4 to 6 days of incubation at 37° C. At the end of incubation period at 37° C., the resulting cytopathic effect (CPE) in control and test wells was assessed by visual and a Neutral Red Dye assay.
(§2) Results of CPE versus concentration of C1 were plotted on a semi-log paper and the dose of C1 that caused a 50% inhibition of virus mediated CPE (EC50) was calculated.

Rhinovirus HGP = type: cell-based; conditions: HeLa Ohio-1 cells, continuous exposure
Experimental: as §1, §2

[3] = test system: Influenza A/New Caledonia/20/99 (H1N1); assay: ETOH vs DMSO comparison: compound + virus 1 h at room temperature, on indicator cells 1 hour then removed, neutral red; type: cell-based, influenza A virus; conditions: exposed to c1 + virus for 1 hour
Flu B Shanghai/361/02 = type: cell-based, influenza B virus; conditions: MDCK cells, continuous exposure
Experimental: as §1, §2

Flu B Shanghai virus = assay: Virucidal activity: virus pre-incubated with compound 1 h, applied to MDCK cells 1 h, removed, CPE after 6 days; type: cell-based, influenza B virus
Experimental: For each test, a stock solution of the lead Compound C1 was made by first dissolving it in a small amount (50-100 microliters) of absolute ethanol (ETOH) followed by addition of growth nutrient medium to a final volume of 1 ml to bring the stock concentration of 20 mg/ml. It was tested at a concentration of 100 μg/ml, with half-log dilutions down to 0.032 μg/ml.
The compound C1 and the virus being tested were incubated together at 8 different concentrations for 1 hour at 37° C. Then virus/compound mixture applied to established cultured MDCK (Madin-Darby canine kidney) cells for 1 hour at 37° C. After 1 hour, the Virus/compound were removed, and replaced with new virus/compound free medium, and the indicator cells were further incubated for 6 days. Virus that survived the one hour pre-incubation and one hour exposure to indicator cells caused cytopathic effect (CPE) development. Results were evaluated by microscopic inspection (visual) as well as a spectrophotometic Neutral Red Dye Assay. The values shown represent the concentration (μg/ml) of C1 that caused a 50% virucidal effect (EC50). […]
The EC50 values were calculated by extrapolation from a plot of concentration versus virucidal activity data on semi-log paper. This allowed us to quantify complete virus killing of a small amount of virus (about 50-100 cell culture infectious doses).

RSV A A2 = type: cell-based, Respiratory Synsycitial virus; conditions: MA-104 cells, continuous exposure
Experimental: as §1, §2

SARS (urbani) = type: cell-based, Severe Acute Respiratory Syndrome (SARS) virus
PIV 14702 = type: cell-based, Parainfluenza virus; conditions: MA-104 cells, continuous exposure
Experimental: as §1, §2

[4] = test system: Flu A (H5N1) Vietnam/1203/2004 H; type: cell-based, influenza A virus; conditions: MDCK cells, continuous exposure
[5] = test system: Influenza A/California/7/04 (H3N2); assay: ETOH vs DMSO comparison: compound + virus 1 h at room temperature, then left on indicator cells 3 days, neutral red; type: cell-based, influenza A virus; conditions: exposed to c1 + virus for 3 days

## CCCCN1C(=O)CC(=O)N(CCCC)C1=S [Compound C1, 4,6(1H, 5H)-Pyrimidinedione, 1,3-dibutyldihydro-2-thioxo]
[1]; DMSO versus ETOH
  Increase virucidal activity of C1 in DMSO: 200%
[1]; dissolved in DMSO, neutral red
  EC50 of C1 in DMSO: >2.6 µg/mL
[1]; dissolved in ETOH, neutral red
  EC50 of C1 in ETOH: >4.5 µg/mL
Flu A (H3N2); FIG. 2
  inactivation of the virus by treatment: virtually complete inactivation
Flu A (H3N2); visual method, virus treated for 4 hours (so in the source), MDCK indicator cells
  dose that caused a 50% inactivation (EC50): 5.5 µg/mL
Flu A (H5N1); Neutral red assay, after 6 days
  dose that caused a 50% inactivation (EC50): 37 µg/mL
Flu A (H5N1); visual method, % CPE after 6 days
  dose that caused a 50% inactivation (EC50): 6.0 µg/mL
[2]; DMSO versus ETOH
  Increase virucidal activity of C1 in DMSO: 220%
[2]; dissolved in DMSO, neutral red
  EC50 of C1 in DMSO: 20.0 µg/mL
[2]; dissolved in ETOH, neutral red
  EC50 of C1 in ETOH: 42.0 µg/mL
Measles Chicago; Neutral Red
  EC50: 40 µg/mL
Measles Chicago; Visual
  EC50: 30 µg/mL
Rhinovirus HGP; Neutral Red
  EC50: 30 µg/mL
Rhinovirus HGP; Visual
  EC50: 30 µg/mL
[3]; DMSO versus ETOH
  Increase virucidal activity of C1 in DMSO: 140%
[3]; dissolved in DMSO, neutral red
  EC50 of C1 in DMSO: 30.0 µg/mL
[3]; dissolved in ETOH, neutral red
  EC50 of C1 in ETOH: 42.0 µg/mL
Flu B Shanghai/361/02; Neutral Red
  EC50: 3 µg/mL
Flu B Shanghai/361/02; Visual
  EC50: 3 µg/mL
Flu B Shanghai virus; Neutral red dye assay
  dose causing 50% inactivation of the virus: 37 µg/mL
Flu B Shanghai virus; visual method
  dose causing 50% inactivation of the virus: 42 µg/mL
RSV A A2; Neutral Red
  EC50: 30 µg/mL
RSV A A2; Visual
  EC50: 30 µg/mL
SARS (urbani); Neutral Red dye assay
  dose causing 50% inactivation of the virus: 53 µg/mL
SARS (urbani); visual method
  dose causing 50% inactivation of the virus: 12 µg/mL
PIV 14702; Neutral Red
  EC50: 30 µg/mL
PIV 14702; Visual
  EC50: 30 µg/mL
[4]; Neutral Red
  EC50: 3 µg/mL (≈ 11.7 µM)
[4]; Visual
  EC50: 3 µg/mL (≈ 11.7 µM)
[5]; DMSO versus ETOH
  Increase virucidal activity of C1 in DMSO: 0%
[5]; dissolved in DMSO, neutral red
  EC50 of C1 in DMSO: >1.9 µg/mL
[5]; dissolved in ETOH, neutral red
  EC50 of C1 in ETOH: >1.8 µg/mL
